Source: patent US20050170360A1, “Variant neuronal nicotinic alpha-7 receptor and methods of use” (priority 2004, published 2005)
Where two headings read alike, the source gives them in different places. Blank lines part the entries; values can stand above or below the molecule they belong to.

Legend:
L247T mutant = L247T mutant (UniProt P22770, L270T, species not given); type: cell-based; details: for type of activity (agonist / antagonist): L247T
wild-type α7 nAChR = wild-type α7 nAChR (Rattus norvegicus, UniProt Q05941); assay: Two-electrode voltage-clamp recording of Xenopus oocytes expressing wild-type α7
Procedure: Mature (>9 cm) female Xenopus laevis African toads (Nasco, Ft. Atkinson, Wis.) were used as a source of oocytes. Prior to surgery, frogs were anesthetized by placing the animal in a 2 g/L solution of MS222 (3-aminobenzoic acid ethyl ester). Oocytes were removed from an incision made in the abdomen.
(§3) Subsequently, stage 5 oocytes were isolated and injected with 50 nl each of a mixture of the appropriate subunit cRNAs following harvest. Recordings were made 3 to 21 days after injection depending on the cRNAs being tested.
(§4) Voltage-clamp recording of whole oocate responses. Data were obtained by means of two-electrode voltage-clamp recording. […] This extracellular solution was used for all experiments unless otherwise noted.
(§5) Bath solution and drug applications are applied through a linear perfusion system to oocytes placed in Lucite chamber with a total volume of 0.5 ml. Drug delivery involves pre-loading a 1.8 ml length of tubing at the terminus of the perfusion system, while a Mariotte flask filled with Ringer's solution is used to maintain constant perfusion. Applications of drug solutions are then synchronized with acquisition. […] In addition, some oocyte recordings were made using a beta version of the OpusXpress 6000A (Axon Instruments, Union City, Calif.). OpusXpress is an integrated system that provides automated impalement and voltage clamp, which in our case permitted the study of four oocytes in parallel. Cells were automatically perfused with bath solution, and agonist solutions were delivered from a 96-well compound plate. In experiments using the OpusXpress system, the voltage and current electrodes were filled with 3 M KCl. In all experiments, bath flow rates were set at 6 ml/minute.
(§6) Experimental protocols and analysis of data from Xenopus oocytes. Current responses to drug application were studied under two-electrode voltage clamp at a holding potential of −50 mV unless otherwise noted (−60 mV for the OpusXpress system). Holding currents immediately prior to agonist application were subtracted from measurements of the peak response to agonist. All drug applications were separated by a wash period of 5 minutes unless otherwise noted. […] Means and standard errors (SEM) were calculated from the normalized responses of at least four oocytes for each experimental concentration.
(§7) For concentration-response relations, data were plotted using Kaleidagraph 3.0.2 (Abelbeck Software; Reading, Pa.), and curves were generated using the Hill equation: [formula] where Imax denotes the maximal response for a particular agonist/subunit combination, and n represents the Hill coefficient. Imax, n, and the EC50 were all unconstrained for the fitting procedures.
(§8) Calculations of peak amplitudes and net charge were made using pClamp either during acquisition or during subsequent Clampfit analysis.

rat α7 TM2 T6'S = rat α7 TM2 T6'S (Rattus norvegicus, UniProt Q05941, T267S); assay: Two-electrode voltage-clamp recording of Xenopus oocytes expressing α7 TM2 T6'S mutant
Procedure: Expression in Xenopus oocvtes. Mature (>9 cm) female Xenopus laevis African toads (Nasco, Ft. Atkinson, Wis.) were used as a source of oocytes. Prior to surgery, frogs were anesthetized by placing the animal in a 2 g/L solution of MS222 (3-aminobenzoic acid ethyl ester). Oocytes were removed from an incision made in the abdomen.
as §3, §4, §5, §6, §7, §8

rat α7 TM2 T6'F = biological target: T1, rat α7 TM2 T6'F (Rattus norvegicus, UniProt Q05941, T267F); assay: Two-electrode voltage-clamp recording of Xenopus oocytes expressing α7 TM2 T6'F mutant; type: cell-based
T1 construct: expressed in transfected cells; host or cells: Xenopus laevis oocytes injected with cRNA
Excerpt: Site-directed mutagenesis.
(§1) Expression in Xenopus oocvtes.
(§2) Voltage-clamp recording of whole oocate responses.

muscle-type receptors = biological target: T2, muscle-type receptors (Mus musculus, UniProt P02716+P04756); assay: Two-electrode voltage-clamp recording of Xenopus oocytes expressing muscle-type receptors; type: cell-based
T2 construct: expressed in transfected cells; host or cells: Xenopus laevis oocytes injected with cRNA
Excerpt: as §1, §2

SMILES: NCCc1c[nH]c2ccc(O)cc12 [5-HT]
- type of activity (agonist / antagonist) (L247T mutant): agonist
- type of activity (agonist / antagonist / potentiation) (wild-type α7 nAChR; Wild type): antagonist
- type of activity (agonist / antagonist / potentiation) (rat α7 TM2 T6'S; T6'S): antagonist

SMILES: Oc1ccc2[nH]ccc2c1 [5HI, 5-hydroxy-indole]
- type of activity (agonist / antagonist / potentiation) (wild-type α7 nAChR; Wild type): potentiates
- type of activity (agonist / antagonist / potentiation) (rat α7 TM2 T6'S; T6'S): does not potentiate

SMILES: O=C1NCC2(CN3CCC2CC3)O1 (centres unmarked) [AR-R17779]
- % agonist (wild-type α7 nAChR; Wild type): 78% agonist 10 μM
- % agonist (rat α7 TM2 T6'S; T6'S): 90% agonist 30 μM

SMILES: C[N+](C)(C)CCO [Choline]
- EC50 (L247T mutant): 12 µM
- EC50 (wild-type α7 nAChR): 300 µM
- % agonist (wild-type α7 nAChR; Wild type): 100% agonist 300 μM
- EC50 (rat α7 TM2 T6'S): 2000 µM
- EC50 (rat α7 TM2 T6'S; EC50, T6'S column): ~360 µM
- % agonist (rat α7 TM2 T6'S; T6'S): 95% agonist 2 mM

SMILES: O=c1cccc2n1C[C@@H]1CNC[C@H]2C1 [Cytisine]
- % agonist (wild-type α7 nAChR): 73% agonist 13 μM
- EC50 (wild-type α7 nAChR): 13 µM
- % agonist (rat α7 TM2 T6'S): 80% agonist 43 μM
- EC50 (rat α7 TM2 T6'S): 43 µM

SMILES: COc1ccc(/C=C2\CCCN=C2c2cccnc2)c(OC)c1 [GTS-21 (DMXB)]
- type of activity (agonist / antagonist) (L247T mutant): full
- EC50 (wild-type α7 nAChR): 5 µM
- % agonist (wild-type α7 nAChR; Wild type): 32%
- EC50 (rat α7 TM2 T6'S): 3 µM
- % agonist (rat α7 TM2 T6'S; T6'S): 12%

SMILES: C[N+](C)(C)CCCCCC[N+](C)(C)C [Hexamethonium]
- type of activity (agonist / antagonist) (L247T mutant): agonist
- type of activity (agonist / antagonist / potentiation) (wild-type α7 nAChR; Wild type): antagonist
- type of activity (agonist / antagonist / potentiation) (rat α7 TM2 T6'S; T6'S): antagonist

SMILES: CNCC/C=C/c1cccnc1 [TC-2403]
- EC50 (wild-type α7 nAChR): 240 µM
- % agonist (wild-type α7 nAChR; Wild type): 16%
- EC50 (rat α7 TM2 T6'S): 400 µM
- % agonist (rat α7 TM2 T6'S; T6'S): 18% agonist

- % agonist (wild-type α7 nAChR; Wild type): 38%
- % agonist (rat α7 TM2 T6'S; T6'S): 30%
SMILES: CN1[C@@H]2CC[C@H]1C[C@@H](OC(=O)c1c[nH]c3ccccc13)C2 [Tropisetron]

SMILES: COc1cc2c3cc1Oc1cc(ccc1O)C[C@@H]1c4c(cc(OC)c(O)c4Oc4ccc(cc4)C[C@@H]3N(C)CC2)CC[N+]1(C)C [Tubocurarine]
- type of activity (agonist / antagonist) (L247T mutant): agonist
- type of activity (agonist / antagonist / potentiation) (wild-type α7 nAChR; Wild type): antagonist
- type of activity (agonist / antagonist / potentiation) (rat α7 TM2 T6'S; T6'S): antagonist

SMILES: [Zn+2] [Zinc]
- type of activity (agonist / antagonist) (L247T mutant): agonist
- type of activity (agonist / antagonist / potentiation) (wild-type α7 nAChR; Wild type): antagonist
- type of activity (agonist / antagonist / potentiation) (rat α7 TM2 T6'S; T6'S): antagonist

SMILES: C[N+](C)(C)CCOC(=O)CCC(=O)OCC[N+](C)(C)C [succinylcholine]
- activation of receptor (rat α7 TM2 T6'F; 100 μM succinylcholine): dramatic increase in sensitivity
- concentration-response function (rat α7 TM2 T6'F; full range of concentrations): relatively potent, full agonist
- type of activity (muscle-type receptors): Selective Agonist
- activation of receptor (wild-type α7 nAChR): relatively ineffective
- concentration-response function (wild-type α7 nAChR; full range of concentrations): respond poorly
- activation of receptor (rat α7 TM2 T6'S): virtually no response
- concentration-response function (rat α7 TM2 T6'S; full range of concentrations): respond poorly
